According to patent publication US7612211B2, “Benzimidazole TRPV1 inhibitors” (Janssen Pharmaceutica N.V., priority 2006, dated 2009):

Molecular target: T1, hTRPV1 (Homo sapiens, UniProt Q8NER1)
T1 construct: expressed in transfected cells; host or cells: HEK293
Experiment: Human TRPV1 (hTRPV1) functional assay, FLIPR intracellular Ca2+, capsaicin challenge
Format: cell-based
Conditions: HEK293 cells expressing hTRPV1, capsaicin 0.030 μM challenge; for inhibition at 0.2 µM: test concentration of 0.2 μm, read-out: percent inhibition (symbol b); for IC50: derived from a variety of test concentrations, read-out: IC50 value (symbol c); for inhibition at 0.5 µM: test concentration of 0.5 μm, read-out: percent inhibition (symbol a)
Protocol: The functional activity of the test compounds was determined by measuring changes in intracellular calcium concentration using a Ca^++-sensitive fluorescent dye and FLIPR™ technology. Increases in Ca^++ concentration were readily detected upon challenge with capsaicin.
HEK293 cells expressing hTRPV1 were grown on poly-D-lysine coated 384 well black-walled plates (BD 354663) and 1 day later loaded with Calcium 3 Dye for 35 min at 37° C., 5% CO2 and then for 25 min at room temperature, and subsequently tested for agonist-induced increases in intracellular Ca^2+ levels using FLIPR™ technology. Cells were challenged with test compounds (at varying concentrations) and intracellular Ca^2+ was measured for 5 min prior to the addition of capsaicin to all wells to achieve a final concentration of 0.030 μM eliciting ˜80% maximal response.
EC50 or IC50 values were determined from concentration-response studies, which were generated using the average of quadruplicate wells for each data point. The symbol “a” represents percent inhibition obtained at a test concentration of 0.5 μm; the symbol “b” represents percent inhibition obtained at a test concentration of 0.2 μm; the symbol “c” represents an IC50 value (nM) derived from a variety of test concentrations. The term “NA” means that the result is not applicable for a particular compound.

T1 sequence (Q8NER1 whole entry): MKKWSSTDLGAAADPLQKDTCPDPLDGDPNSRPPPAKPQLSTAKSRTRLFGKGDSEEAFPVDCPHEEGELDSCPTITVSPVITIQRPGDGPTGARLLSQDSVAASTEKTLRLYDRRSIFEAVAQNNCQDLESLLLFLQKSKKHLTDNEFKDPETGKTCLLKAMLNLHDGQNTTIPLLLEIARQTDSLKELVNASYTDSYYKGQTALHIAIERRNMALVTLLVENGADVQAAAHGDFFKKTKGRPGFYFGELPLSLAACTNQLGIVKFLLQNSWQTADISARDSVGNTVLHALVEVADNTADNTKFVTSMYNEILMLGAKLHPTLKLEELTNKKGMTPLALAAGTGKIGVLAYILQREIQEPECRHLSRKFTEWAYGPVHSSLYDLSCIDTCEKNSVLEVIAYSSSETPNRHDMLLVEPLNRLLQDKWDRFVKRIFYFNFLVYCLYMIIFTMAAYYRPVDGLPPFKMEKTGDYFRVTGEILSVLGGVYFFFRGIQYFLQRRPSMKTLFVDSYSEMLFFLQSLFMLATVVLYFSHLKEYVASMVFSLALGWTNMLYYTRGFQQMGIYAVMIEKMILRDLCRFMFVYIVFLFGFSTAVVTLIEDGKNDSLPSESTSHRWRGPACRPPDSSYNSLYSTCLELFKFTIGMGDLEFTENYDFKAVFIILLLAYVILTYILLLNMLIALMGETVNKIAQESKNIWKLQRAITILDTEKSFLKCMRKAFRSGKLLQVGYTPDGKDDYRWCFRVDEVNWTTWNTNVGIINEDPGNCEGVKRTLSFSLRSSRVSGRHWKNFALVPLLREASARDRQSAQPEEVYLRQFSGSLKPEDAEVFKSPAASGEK

| SMILES | inhibition at 0.2 µM | IC50 | inhibition at 0.5 µM |
| --- | --- | --- | --- |
| CC(C)(C)C(O)c1ccccc1-c1ccc2[nH]c(COc3ccc(C(F)(F)F)cc3)nc2c1 (centres unmarked) [Cpd 145, 2,2-dimethyl-1-{2-[2-(4-trifluoromethyl-phenoxymethyl)-1H-benzoimidazol-5-yl]-phenyl}-propan-1-ol] | 12% | – | – |
| CS(=O)(=O)Nc1ccccc1-c1ccc2[nH]c(COc3ccc(C4CC4)cc3)nc2c1 [Cpd 168, N-{2-[2-(4-cyclopropyl-phenoxymethyl)-1H-benzoimidazol-5-yl]-phenyl}-methanesulfonamide] | 97% | 24 nM | – |
| CC(O)CS(=O)(=O)c1ccccc1-c1ccc2[nH]c(COc3ccc(C(F)(F)F)cc3)nc2c1 (centres unmarked) [Cpd 160, 1-{2-[2-(4-trifluoromethyl-phenoxymethyl)-1H-benzoimidazol-5-yl]-benzenesulfonyl}-propan-2-ol] | 90% | 12.5 nM | – |
| CS(=O)(=O)c1ccc(-c2ccc3[nH]c(COc4ccc(C(F)(F)F)cc4)nc3c2)cc1 [Cpd 100, 5-(4-methanesulfonyl-phenyl)-2-(4-trifluoromethyl-phenoxymethyl)-1H-benzoimidazole] | – | – | 13% |
| NS(=O)(=O)c1ccccc1-c1ccc2[nH]c(COc3ccc(C(F)(F)F)cn3)nc2c1 [Cpd 39, 2-[2-(5-trifluoromethyl-pyridin-2-yloxymethyl)-1H-benzoimidazol-5-yl]-benzenesulfonamide] | – | – | 5% |
| CS(=O)(=O)c1ccccc1-c1ccc2[nH]c(COc3ccc(F)c(F)c3)nc2c1 [Cpd 63, 2-(3,4-difluoro-phenoxymethyl)-5-(2-methanesulfonyl-phenyl)-1H-benzoimidazole] | 37% | – | – |
| CC(C)(O)CNC(=O)c1ccccc1-c1ccc2[nH]c(COc3ccc(C(F)(F)F)cc3)nc2c1 [Cpd 153, N-(2-hydroxy-2-methyl-propyl)-2-[2-(4-trifluoromethyl-phenoxymethyl)-1H-benzoimidazol-5-yl]-benzamide] | 31% | – | – |
| CS(=O)(=O)c1ccc(OCc2nc3cc(-c4ccccc4S(=O)(=O)CCO)ccc3[nH]2)cc1 [Cpd 162, 2-{2-[2-(4-methanesulfonyl-phenoxymethyl)-1H-benzoimidazol-5-yl]-benzenesulfonyl}-ethanol] | 4% | – | – |
| CCOc1ccc(OCc2nc3cc(-c4ccccc4S(N)(=O)=O)ccc3[nH]2)cc1 [Cpd 33, 2-[2-(4-ethoxy-phenoxymethyl)-1H-benzoimidazol-5-yl]-benzenesulfonamide] | – | 44 nM | 100% |
| OCC(O)c1ccccc1-c1ccc2[nH]c(COc3ccc(C(F)(F)F)cc3)nc2c1 (centres unmarked) [Cpd 150, 1-{2-[2-(4-trifluoromethyl-phenoxymethyl)-1H-benzoimidazol-5-yl]-phenyl}-ethane-1,2-diol] | 99% | 16 nM | – |
| FC(F)(F)c1ccc(OCc2nc3cc(-c4ccccc4)ccc3[nH]2)cc1 [Cpd 126, 5-phenyl-2-(4-trifluoromethyl-phenoxymethyl)-1H-benzoimidazole] | – | – | 4% |
| NS(=O)(=O)c1ccccc1-c1ccc2[nH]c(CNc3ccc(OC(F)(F)F)cc3)nc2c1 [Cpd 48, 2-{2-[(4-trifluoromethoxy-phenylamino)-methyl]-1H-benzoimidazol-5-yl}-benzenesulfonamide] | 41% | – | – |
| OCc1ccccc1-c1ccc2[nH]c(COc3ccc(C(F)(F)F)cc3)nc2c1 [Cpd 116, {2-[2-(4-trifluoromethyl-phenoxymethyl)-1H-benzoimidazol-5-yl]-phenyl}-methanol] | – | 8.1 nM | 99% |
| CC(=O)Nc1cccc(-c2ccc3[nH]c(COc4ccc(C(F)(F)F)cc4)nc3c2)c1 [Cpd 114, N-{3-[2-(4-trifluoromethyl-phenoxymethyl)-1H-benzoimidazol-5-yl]-phenyl}-acetamide] | – | – | 6% |
| CS(=O)(=O)c1ccccc1-c1ccc2[nH]c(COc3ccc(F)cc3)nc2c1 [Cpd 56, 2-(4-fluoro-phenoxymethyl)-5-(2-methanesulfonyl-phenyl)-1H-benzoimidazole] | 31% | – | – |
